Changes are numbered by the printed parent chain.
How the values were obtained:
TRIM24 N980F = biological target: T1, TRIM24 N980F (Homo sapiens, UniProt O15164, N980F); assay: Qualitative WaterLOGSY binding; parameters: key: ✓: √ is assigned to compounds that showed binding; ? is assigned when the result was ambiguous; × is assigned when no-binding was observed; settings: 500 µM compound, 20 µM protein
T1 sequence (O15164 825-1007 N980F limits assumed): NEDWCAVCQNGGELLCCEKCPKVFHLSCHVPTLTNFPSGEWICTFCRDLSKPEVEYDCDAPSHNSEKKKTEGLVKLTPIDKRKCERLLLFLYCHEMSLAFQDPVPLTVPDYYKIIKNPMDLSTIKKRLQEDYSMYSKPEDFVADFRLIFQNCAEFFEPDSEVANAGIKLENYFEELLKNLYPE
Description: (§1) To investigate where these compounds bind on the TRIM24 or 33 PHD-BRD cassette, we performed waterLOGSY experiments using the wild-type and mutant reader domains (Table 4).
(§2) Table S19. WaterLOGSY buffer composition (10 mM Na/K phosphate buffer, PBS, pH 7.6).
(§3) Reagent Amount required per litre (g)
(§4) The buffer was filtered under vacuum through a 0.2 µm filter paper (Sartorius UK) before use and stored at 4 °C. Proteins were buffer exchanged from HEPES storage buffer into PBS buffer (0.9% NaCl, pH 7.6) using GE Healthcare PD SpinTrap G-25 columns. For each compound, a water-suppressed 1H spectrum was recorded as a reference, followed by waterLOGSY spectra of the compound in the absence and presence of the specified protein. Samples were prepared to a total sample volume of 160 µL in PBS buffer (pH 7.6), with 500 µM compound (unless otherwise specified) from 50 mM DMSO-D6 stock solutions, 10% D2O for signal locking, and 20 µM protein (unless otherwise specified) for samples with protein. After loading into 3 mm Hilgenberg NMR tubes for Bruker Match™ system, samples were briefly centrifuged in a manual benchtop rotor. Spectra were recorded on a Bruker AVIII 700 MHz spectrometer with inverse TCI cryoprobe using a standard waterLOGSY pulse sequence.4 Peaks were assigned using DMSO-D6 as a reference peak at 2.5 ppm.

TRIM24 WT = biological target: T2, TRIM24 WT (Homo sapiens, UniProt O15164); assay: Qualitative WaterLOGSY binding; parameters: key: ✓: √ is assigned to compounds that showed binding; ? is assigned when the result was ambiguous; × is assigned when no-binding was observed; settings: 500 µM compound, 20 µM protein
T2 construct: His6-TRIM24 (BRD-PHD); made in house; host or cells: E. coli BL21 (DE3) Gold
T2 sequence (O15164 with tags, fused parts or gaps): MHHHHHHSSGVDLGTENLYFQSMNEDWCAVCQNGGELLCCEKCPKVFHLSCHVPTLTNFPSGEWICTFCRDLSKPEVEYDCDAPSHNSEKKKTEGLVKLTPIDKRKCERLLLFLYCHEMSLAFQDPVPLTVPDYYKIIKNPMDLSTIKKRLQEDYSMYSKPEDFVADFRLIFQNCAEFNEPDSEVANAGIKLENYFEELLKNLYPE
Description: as §1, §2, §3, §4

TRIM33α N1039F = biological target: T3, TRIM33α N1039F (Homo sapiens, UniProt Q9UPN9, N1039F); assay: Qualitative WaterLOGSY binding; parameters: key: ✓: √ is assigned to compounds that showed binding; ? is assigned when the result was ambiguous; × is assigned when no-binding was observed; settings: 500 µM compound, 20 µM protein
T3 construct: The TRIM33β cassette (residues 888–1127) was expressed; made in house; host or cells: E. coli BL21 (DE3) Gold
T3 sequence (Q9UPN9 888-1127 N1039F): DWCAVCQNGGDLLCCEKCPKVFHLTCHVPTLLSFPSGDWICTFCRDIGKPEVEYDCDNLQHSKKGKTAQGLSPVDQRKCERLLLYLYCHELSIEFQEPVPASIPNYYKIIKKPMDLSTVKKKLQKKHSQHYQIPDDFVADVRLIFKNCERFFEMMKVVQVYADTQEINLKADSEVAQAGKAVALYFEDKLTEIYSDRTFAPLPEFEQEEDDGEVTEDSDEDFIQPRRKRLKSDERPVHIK
Description: as §1, §2, §3, §4

TRIM33α WT = biological target: T4, TRIM33α WT (Homo sapiens, UniProt Q9UPN9); assay: Qualitative WaterLOGSY binding; parameters: key: ✓: √ is assigned to compounds that showed binding; ? is assigned when the result was ambiguous; × is assigned when no-binding was observed; settings: 500 µM compound, 20 µM protein
T4 construct: The TRIM33β cassette (residues 888–1127) was expressed; made in house; host or cells: E. coli BL21 (DE3) Gold
T4 sequence (Q9UPN9 888-1127): T3 sequence (Q9UPN9 888-1127 N1039F) with F152N
Description: as §1, §2, §3, §4

TRIM33β N1039F = biological target: T5, TRIM33β N1039F (Homo sapiens, UniProt Q9UPN9, N1039F); assay: Qualitative WaterLOGSY binding; parameters: key: ✓: √ is assigned to compounds that showed binding; ? is assigned when the result was ambiguous; × is assigned when no-binding was observed; settings: 500 µM compound, 20 µM protein
T5 construct: The TRIM33β cassette (residues 888–1127) was expressed; made in house; host or cells: E. coli BL21 (DE3) Gold
T5 sequence (Q9UPN9 888-1110 isoform Q9UPN9-2 N1039F): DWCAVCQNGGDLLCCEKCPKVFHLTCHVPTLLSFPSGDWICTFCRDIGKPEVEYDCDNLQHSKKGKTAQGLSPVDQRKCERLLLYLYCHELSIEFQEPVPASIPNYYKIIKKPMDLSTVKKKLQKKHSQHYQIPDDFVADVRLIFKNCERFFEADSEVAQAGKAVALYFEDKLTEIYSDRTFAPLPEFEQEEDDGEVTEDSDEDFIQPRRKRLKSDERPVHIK
Description: as §1, §2, §3, §4

TRIM33β WT = biological target: T6, TRIM33β WT (Homo sapiens, UniProt Q9UPN9); assay: Qualitative WaterLOGSY binding; parameters: key: ✓: √ is assigned to compounds that showed binding; ? is assigned when the result was ambiguous; × is assigned when no-binding was observed; settings: 500 µM compound, 20 µM protein
T6 construct: The TRIM33β cassette (residues 888–1127) was expressed; made in house; host or cells: E. coli BL21 (DE3) Gold
T6 sequence (Q9UPN9 888-1110 isoform Q9UPN9-2 limits assumed): T5 sequence (Q9UPN9 888-1110 isoform Q9UPN9-2 N1039F) with F152N
Source text: To determine whether compounds 3–7 are genuine ligands for TRIM33, we employed an AlphaScreen TruHits screen.[58] The TruHits screen includes streptavidin-coated donor beads and biotinylated acceptor beads, which interact to generate a signal. Compounds that interfere with this control signal, such as fluorescence quenchers, insoluble light scatterers, ^1O2 quenchers, and biotin mimetics, can be identified using this approach. In the TruHits screen,[59] significant assay interference was observed from all five compounds (3–7, Table S21), meaning that AlphaScreen data generated for these compounds are unreliable. We therefore sought to investigate TRIM33 binding of compounds 3 and 4 using ITC and waterLOGSY approaches (Figures S3–6). These compounds were selected as they have a range of reported IC50 values for TRIM33. […] To determine whether these compounds are weak binders to TRIM33β, we subjected them to a waterLOGSY assay against TRIM33β. […] However, the use of different protein isoforms may account for some of the observed discrepancies.
as §1, §2, §3, §4

TRIM24 PHD-BRD = biological target: T7, TRIM24 PHD-BRD (Homo sapiens, UniProt O15164); assay: AlphaScreen dose-response displacement of biotinylated H3 peptide
T7 sequence (O15164 with tags, fused parts or gaps): T2 sequence (O15164 with tags, fused parts or gaps)
Description: (§5) To establish an AlphaScreen assay,[13],[50],[51] the PHD-BRD cassettes of TRIM24 and both TRIM33 isoforms were expressed with an N-terminal His6 tag attached (CD spectra for these constructs are shown in Figure S9).
(§6) Assay buffer was freshly prepared each day by supplementing HEPES buffer with BSA, the pH was
(§7) adjusted to 7.6 and filter sterilized through a 0.22 µm filter, and stored at 4 °C until use.
(§8) steps, the plate was sealed, shaken for 10 sec at 600 rpm on a plate oscillator, and incubated at room
(§9) in triplicate, as point concentrations or serial buffer dilutions from 50 mM DMSO solutions.
(§10) peptide mix (7 µL) was dispensed into each well using a Thermo-Fisher electronic multi-channel
(§11) pipette, and incubated for 30 min. AlphaScreen bead mix (8 µL; 25 µg/mL of acceptor and donor beads)
(§12) was added to each well, taking adequate precautions to avoid light exposure, before being incubated for
(§13) 1 h. The plate was read using a Synergy™ 2 MultiMode Microplate Reader using the built-in
(§14) Single shot screening was performed in triplicate.
(§15) <0.5% DMSO. Inhibition is reported as a reduction in signal arising from peptide-bromodomain
(§16) interaction, normalised to a DMSO control. Signal response curves were obtained for peptides or
(§17) compounds in triplicate, with serial 1:2 dilutions. Samples containing buffer or DMSO in place of
(§18) compound were included in all assays for normalisation. Data were processed by fitting a four-
(§19) parameter equation shown below to calculate IC50 values using GraFit version 7.0.32 or GraphPad Prism
(§20) 𝑌 = 𝑀𝑖𝑛𝑖𝑚𝑢𝑚 + 𝑀𝑎𝑥𝑖𝑚𝑢𝑚 − 𝑚𝑖𝑛𝑖𝑚𝑢𝑚 ,𝑤ℎ𝑒𝑟𝑒 𝑋 = log (𝑐𝑜𝑚𝑝𝑜𝑢𝑛𝑑 𝑐𝑜𝑛𝑐𝑒𝑛𝑡𝑟𝑎𝑡𝑖𝑜𝑛) 1 + 10("#$%&!"’()(*+,, .,/01)
(§21) Assay buffer was prepared as above. For incubation steps, the plate was sealed, shaken for 10 sec at
(§22) 600 rpm on a plate oscillator, and incubated at room temperature in the dark. Peptides (5 µL) were
(§23) dilutions from 100 µM HEPES buffer stock solutions. Protein (7 µL) was dispensed into each well
(§24) using a Thermo-Fisher electronic multi-channel pipette, and incubated for 30 min. AlphaScreen bead
(§25) mix (8 µL; 25 µg/mL of acceptor and donor beads) was added to each well, avoiding light exposure,
(§26) before being incubated for 1 h. The plate was read using a Synergy™ 2 MultiMode Microplate Reader
(§27) Ni2+ chelate acceptor and streptavidin donor beads were prepared as a mixture in a 1:300 or 1:400
(§28) dilution as required (0.005–0.007 mg/mL FAC); biotinylated peptide employed, and final assay
(§29) concentrations were as detailed in table below. Assay well volume was 20 µL.
(§30) Peptides were supplied as 1–9 mg quantities with >95% purity (as determined by HPLC; Cambridge
(§31) Research Biochemicals or Genscript). Residual water and counter ions were predicted to comprise 20%
(§32) of the net mass, and peptides were dissolved to 10, 1.0, and 0.1 mM stocks in buffer (50 mM HEPES,
(§33) 500 mM NaCl; pH 7.6) before being stored at -80 °C in 5 µL aliquots. A terminal tyrosine residue was
(§34) incorporated into the peptide structure to allow for accurate quantification of concentration.

TRIM33α PHD-BRD = biological target: T8, TRIM33α PHD-BRD (Homo sapiens, UniProt Q9UPN9); assay: as above; settings: for IC50: TRIM33α IC50 (AlphaScreen)
T8 sequence (Q9UPN9 888-1127): T3 sequence (Q9UPN9 888-1127 N1039F) with F152N
Description: as §5, §6, §7, §8, §9, §10, §11, §12, §13, §14, §15, §16, §17, §18, §19, §20, §21, §22, §23, §24, §25, §26, §27, §28, §29, §30, §31, §32, §33, §34

TRIM33β PHD-BRD [1] = biological target: T9, TRIM33β PHD-BRD (Homo sapiens, UniProt Q9UPN9); assay: as above
T9 sequence (Q9UPN9 888-1110 isoform Q9UPN9-2 limits assumed): T5 sequence (Q9UPN9 888-1110 isoform Q9UPN9-2 N1039F) with F152N
Description: as §5, §6, §7, §8, §9, §10, §11, §12, §13, §14, §15, §16, §17, §18, §19, §20, §21, §22, §23, §24, §25, §26, §27, §28, §29, §30, §31, §32, §33, §34

TRIM33 = system: TRIM33; parameters: method as in earlier work; settings: isoform later confirmed to be TRIM33α; read-out: reported TRIM33 IC50 (AlphaScreen); cited from earlier work
TRIM33β PHD-BRD [2] = biological target: T9, TRIM33β PHD-BRD; assay: Isothermal titration calorimetry (ITC); format: binding; parameters: The TRIM33β cassette (residues 888–1127) was expressed; made in house; host or cells: E. coli BL21 (DE3) Gold; settings: cell 40 µM compound, syringe 316 µM TRIM33β
Source text: The first data point was excluded from the analysis.
(1 picture or pasted object on this page, not shown here)

TRIM24 BRD = settings: read-out: TRIM24 Kd (ITC); cited from earlier work
BRPF1 BRD = settings: read-out: BRPF Kd (ITC); cited from earlier work
[3] = TRIM24 IC50 (AlphaScreen), peptide in assay H31-27K9Me3 (PHD)
[4] = TRIM24 IC50 (AlphaScreen), peptide in assay H31-27K9Me3K18Ac (DUAL)
[5] = TRIM24 IC50 (AlphaScreen), peptide in assay H31-27K18Ac (BRD)
[6] = peptide in assay H31-27K9Me3 (PHD)
[7] = peptide in assay H31-27K9Me3K18Ac (DUAL)
[8] = peptide in assay H31-27K18Ac (BRD)

Compound	WaterLOGSY binding TRIM24 N980F (TRIM24 N980F)	WaterLOGSY binding TRIM24 WT (TRIM24 WT)	WaterLOGSY binding TRIM33α N1039F (TRIM33α N1039F)	WaterLOGSY binding TRIM33α WT (TRIM33α WT)	WaterLOGSY binding TRIM33β N1039F (TRIM33β N1039F)	WaterLOGSY binding TRIM33β WT (TRIM33β WT)	IC50 (TRIM24 PHD-BRD; [3])	IC50 (TRIM24 PHD-BRD; [4])	IC50 (TRIM24 PHD-BRD; [5])	IC50 (TRIM33α PHD-BRD; [6])	IC50 (TRIM33α PHD-BRD; [7])	IC50 (TRIM33α PHD-BRD; [8])	IC50 (TRIM33β PHD-BRD [1]; [6])	IC50 (TRIM33β PHD-BRD [1]; [7])	IC50 (TRIM33β PHD-BRD [1]; [8])	further results
Cc1cc2c(NC(=O)Nc3ccccc3)cccc2nn1 [Compound 11]	✓	✓	✓	✓	✓	✓										
Cn1c(=O)n(C)c2cc(CNCCc3ccc(S(N)(=O)=O)cc3)ccc21 [Compound 8]	×	✓	✓	✓	?	✓										
CC(C)(C)Nc1c(-c2c[nH]c3ncccc23)nc2ccccn12 [Compound 7]							105 µM	58 µM	43.8 µM	> 250 µM	> 250 µM	> 250 µM	> 250 µM	> 250 µM	> 250 µM	
Cc1nc[nH]c1-c1nc2ccccn2c1NCCN1CCOCC1 [Compound 4]							52 µM	23.1 µM	18.6 µM	> 250 µM	> 250 µM	> 250 µM	> 250 µM	58.7 µM	55.3 µM	IC50 (TRIM33): 3.78 µM; binding to TRIM33β by ITC (TRIM33β PHD-BRD [2]): Neither compound showed binding
COc1ccc(Nc2c(-c3[nH]cnc3C)nc3ccc(Br)cn23)cc1 [Compound 3]							1.86 µM	1.46 µM	1.76 µM	1.89 µM	1.15 µM	1.58 µM	1.4 µM	1.82 µM	1.49 µM	IC50 (TRIM33): 0.538 µM; binding to TRIM33β by ITC (TRIM33β PHD-BRD [2]): Neither compound showed binding
COc1ccc(Oc2cc3c(cc2NS(=O)(=O)c2ccc(OC)c(OC)c2)n(C)c(=O)n3C)cc1 [Compound 2]																Kd (TRIM24 BRD): 0.222 µM; Kd (BRPF1 BRD): 0.137 µM; IC50 (TRIM24 PHD-BRD; IC50 binding to the TRIM24 BRD-PHD (AlphaScreen), displacement of H3_1–27K18Ac): 0.219 µM; displacement of H3_1–27K18Ac from TRIM33α (AlphaScreen) (TRIM33α PHD-BRD): not for either isoform of TRIM33
CCCOc1cc(OCCCCN(C)C)cc(Oc2cc3c(cc2NS(=O)(=O)c2ccc(OC)c(OC)c2)n(C)c(=O)n3C)c1 [IACS-9571]																Kd (BRPF1 BRD): 0.014 µM
O=C(CN1CCOC(c2cncc(-c3cccc(F)c3)n2)C1)NCc1ccccn1 (stereo not drawn) [Compound 9]	×	×	✓	✓	×	✓										
O=C(Nc1ccccc1)Nc1ccc2cccnc2c1 [Compound 10]	✓	✓	✓	✓	✓	✓										
COC(=O)c1ccc2nc(-c3c[nH]c(C)n3)c(NC3CCCCC3)n2c1 [Compound 6]							17.1 µM	11.1 µM	20 µM	> 250 µM	75.1 µM	16.6 µM	6.69 µM	8.86 µM	7.91 µM	
Cc1nc[nH]c1-c1nc2ccccn2c1NC1CCCCC1 [Compound 5]							3.57 µM	3.32 µM	4.21 µM	2.71 µM	1.68 µM	2.74 µM	3.37 µM	3.11 µM	3.16 µM	
